Literature values, collected in patent US20040048261A1, “Invertebrate choline transporter nucleic acids, polypeptides and uses thereof” (priority 2002, published 2004).

Tests used:
[1] = target: low-affinity, sodium-independent system for choline uptake; conditions: synaptosome studies, high choline concentrations, read-out: inhibition constant (Ki)
[2] = target: high-affinity, sodium-dependent system for choline uptake; conditions: synaptosome studies, low choline concentrations

Q: What does the source list for `C[N+]1(C)CCOC(O)(c2ccc(-c3ccc(C4(O)C[N+](C)(C)CCO4)cc3)cc2)C1` (centres unmarked) [HC-3, hemicholinium-3]?
A: Ki [1]: ~50 µM; Ki [2]: 0.01 to 0.1 µM
